Columns and labels:
Assay in all cases: KINOMEscan Max
Assay type in all cases: binding
PCTK3 = PCTK3 (Homo sapiens, UniProt Q07002)
Outline: (§1)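 DNA-tagged kinase + immobilized active-site directed ligand + test compound combined; ligand-bound kinase quantified by qPCR of tag. Competition binding format.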

BIKE = biological target: T1, BIKE (Homo sapiens, UniProt Q9NSY1)
T1 construct: purchased Ambit (KINOMEscan Max service)
Outline: as §1

TNK2 = biological target: T2, TNK2 (Homo sapiens, UniProt Q07912)
T2 construct: purchased Ambit Kinomescan (contract screening service)
Outline: as §1

CAMKK2 = biological target: T3, CAMKK2 (Homo sapiens, UniProt Q96RR4)
T3 construct: DNA tag (qPCR label); purchased Ambit Kinomescan (contract screening)
T3 sequence (Q96RR4 whole entry): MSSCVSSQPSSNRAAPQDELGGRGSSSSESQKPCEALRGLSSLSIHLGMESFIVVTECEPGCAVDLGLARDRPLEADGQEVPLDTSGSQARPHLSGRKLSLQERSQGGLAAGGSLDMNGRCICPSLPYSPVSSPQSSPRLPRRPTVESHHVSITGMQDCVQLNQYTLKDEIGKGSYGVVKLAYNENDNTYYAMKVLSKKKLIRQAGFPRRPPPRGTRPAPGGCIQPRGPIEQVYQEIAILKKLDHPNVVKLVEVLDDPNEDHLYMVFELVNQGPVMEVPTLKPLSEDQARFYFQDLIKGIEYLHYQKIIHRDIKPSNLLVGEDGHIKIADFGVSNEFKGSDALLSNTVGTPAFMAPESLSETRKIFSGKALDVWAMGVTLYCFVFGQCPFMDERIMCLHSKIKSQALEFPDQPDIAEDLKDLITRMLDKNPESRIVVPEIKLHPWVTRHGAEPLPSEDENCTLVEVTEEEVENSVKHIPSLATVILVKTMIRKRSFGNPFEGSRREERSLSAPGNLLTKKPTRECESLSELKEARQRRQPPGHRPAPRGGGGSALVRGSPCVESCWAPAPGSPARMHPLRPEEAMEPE
Outline: as §1

ZAP70 = biological target: T4, ZAP70 (Homo sapiens, UniProt P43403)
T4 construct: purchased Ambit Kinomescan (contract screening service)
T4 sequence (P43403 whole entry): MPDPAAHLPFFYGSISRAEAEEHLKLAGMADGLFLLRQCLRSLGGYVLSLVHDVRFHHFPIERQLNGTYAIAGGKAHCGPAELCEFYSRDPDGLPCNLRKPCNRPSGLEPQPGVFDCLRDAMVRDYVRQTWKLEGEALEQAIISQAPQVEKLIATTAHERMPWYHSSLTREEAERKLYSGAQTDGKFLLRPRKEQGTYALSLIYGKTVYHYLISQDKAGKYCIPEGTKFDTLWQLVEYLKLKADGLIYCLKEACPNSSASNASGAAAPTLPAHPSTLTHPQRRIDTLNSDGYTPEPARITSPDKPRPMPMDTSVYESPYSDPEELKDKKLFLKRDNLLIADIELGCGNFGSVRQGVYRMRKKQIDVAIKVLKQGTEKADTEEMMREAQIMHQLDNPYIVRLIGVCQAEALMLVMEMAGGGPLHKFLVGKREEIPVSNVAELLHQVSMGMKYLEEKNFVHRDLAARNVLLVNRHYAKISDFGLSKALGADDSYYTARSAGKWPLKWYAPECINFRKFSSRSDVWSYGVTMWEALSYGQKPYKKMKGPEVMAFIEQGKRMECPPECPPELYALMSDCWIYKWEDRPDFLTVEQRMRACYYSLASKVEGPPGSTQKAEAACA
Outline: as §1

FGFR1 = biological target: T5, FGFR1 (Homo sapiens, UniProt P11362)
T5 construct: purchased Ambit Kinomescan (contract panel, KINOMEscan Max)
Outline: as §1

RET(V804M) = biological target: T6, RET(V804M) (Homo sapiens, UniProt P07949, V804M)
T6 construct: DNA tag (qPCR read-out)
Outline: as §1

RIOK1 = biological target: T7, RIOK1 (Homo sapiens, UniProt Q9BRS2)
T7 construct: DNA tag (qPCR read-out)
Outline: as §1

ACVR1 = ACVR1 (Homo sapiens, UniProt Q04771)
Outline: as §1

VEGFR2 = biological target: T8, VEGFR2 (Homo sapiens, UniProt P35968)
T8 construct: purchased Ambit Kinomescan (contract screening)
Outline: as §1

EPHB3 = biological target: T9, EPHB3 (Homo sapiens, UniProt P54753)
T9 construct: DNA tag (qPCR read-out)
Outline: as §1

HCK = biological target: T10, HCK (Homo sapiens, UniProt P08631)
T10 construct: purchased Ambit Kinomescan (contract screening)
T10 sequence (P08631 whole entry): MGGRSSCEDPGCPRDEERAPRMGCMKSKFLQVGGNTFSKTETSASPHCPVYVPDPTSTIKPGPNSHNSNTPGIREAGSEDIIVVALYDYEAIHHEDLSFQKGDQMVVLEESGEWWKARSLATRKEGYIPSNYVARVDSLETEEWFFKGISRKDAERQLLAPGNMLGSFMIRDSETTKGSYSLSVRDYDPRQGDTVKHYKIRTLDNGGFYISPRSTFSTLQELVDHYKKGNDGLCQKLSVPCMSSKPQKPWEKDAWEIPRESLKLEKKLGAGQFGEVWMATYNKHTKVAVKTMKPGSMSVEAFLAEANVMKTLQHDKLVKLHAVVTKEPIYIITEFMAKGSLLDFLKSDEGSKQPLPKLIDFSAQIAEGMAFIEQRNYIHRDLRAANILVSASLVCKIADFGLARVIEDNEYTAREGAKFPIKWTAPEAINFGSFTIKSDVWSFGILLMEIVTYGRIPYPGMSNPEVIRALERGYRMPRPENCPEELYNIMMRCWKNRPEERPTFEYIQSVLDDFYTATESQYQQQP
Outline: as §1

PIK3CA(Q546K) = biological target: T11, PIK3CA(Q546K) (Homo sapiens, UniProt P42336, Q546K)
T11 construct: DNA tag (qPCR read-out)
T11 sequence (P42336 whole entry Q546K): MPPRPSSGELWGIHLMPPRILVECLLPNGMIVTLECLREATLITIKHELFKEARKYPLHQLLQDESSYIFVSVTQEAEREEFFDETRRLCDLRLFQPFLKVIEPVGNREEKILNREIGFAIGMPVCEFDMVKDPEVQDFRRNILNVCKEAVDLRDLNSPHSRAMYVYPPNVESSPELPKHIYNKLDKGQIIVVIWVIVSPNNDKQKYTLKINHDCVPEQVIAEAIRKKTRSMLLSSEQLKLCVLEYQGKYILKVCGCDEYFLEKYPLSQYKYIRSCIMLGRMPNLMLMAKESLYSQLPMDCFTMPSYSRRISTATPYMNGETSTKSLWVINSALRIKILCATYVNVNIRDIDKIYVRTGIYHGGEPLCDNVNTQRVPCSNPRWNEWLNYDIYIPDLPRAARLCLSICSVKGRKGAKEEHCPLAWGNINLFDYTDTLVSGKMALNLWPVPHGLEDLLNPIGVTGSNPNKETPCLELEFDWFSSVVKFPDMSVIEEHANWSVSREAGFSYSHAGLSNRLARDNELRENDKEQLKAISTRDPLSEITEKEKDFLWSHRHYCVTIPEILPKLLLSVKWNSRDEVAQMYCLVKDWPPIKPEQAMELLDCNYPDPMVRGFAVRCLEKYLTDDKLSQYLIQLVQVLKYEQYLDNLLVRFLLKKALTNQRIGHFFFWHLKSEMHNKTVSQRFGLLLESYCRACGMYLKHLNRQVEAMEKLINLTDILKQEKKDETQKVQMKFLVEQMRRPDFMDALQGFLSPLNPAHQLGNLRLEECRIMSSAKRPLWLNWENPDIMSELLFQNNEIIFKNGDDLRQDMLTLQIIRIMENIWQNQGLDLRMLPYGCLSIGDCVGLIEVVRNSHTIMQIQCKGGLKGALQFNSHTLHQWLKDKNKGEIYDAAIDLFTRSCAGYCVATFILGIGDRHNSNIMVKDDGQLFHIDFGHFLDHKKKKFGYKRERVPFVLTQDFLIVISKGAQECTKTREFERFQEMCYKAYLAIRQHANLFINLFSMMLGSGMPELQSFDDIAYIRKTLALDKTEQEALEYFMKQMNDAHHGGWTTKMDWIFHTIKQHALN
Outline: as §1

ACVRL1 = biological target: T12, ACVRL1 (Homo sapiens, UniProt P37023)
T12 construct: DNA tag (qPCR label); purchased Ambit Kinomescan (contract screening)
Outline: as §1

PIK3CA(E542K) = PIK3CA(E542K) (Homo sapiens, UniProt P42336, E542K)
Sequence of PIK3CA(E542K) (P42336 whole entry E542K): as the sequence (P42336 whole entry Q546K) above, with E542K, K546Q counted along it
Outline: as §1

FLT3(N841I) = biological target: T13, FLT3(N841I) (Homo sapiens, UniProt P36888, N841I)
T13 construct: purchased Ambit (KINOMEscan Max service)
Outline: as §1

MLK3 = MLK3 (Homo sapiens, UniProt Q16584); details: 1 μM
Outline: as §1

PAK7 = biological target: T14, PAK7 (Homo sapiens, UniProt Q9P286)
T14 construct: DNA tag (qPCR read-out)
Outline: as §1

CLK3 = biological target: T15, CLK3 (Homo sapiens, UniProt P49761)
T15 construct: purchased Ambit (KINOMEscan Max service)
Outline: as §1

[1] = biological target: T16, RPS6KA5(Kin.Dom.1-N-terminal) (Homo sapiens, UniProt O75582)
T16 construct: RPS6KA5(Kin.Dom.1-N-terminal); DNA tag (qPCR read-out)
Outline: as §1

RIOK2 = biological target: T17, RIOK2 (Homo sapiens, UniProt Q9BVS4)
T17 construct: DNA tag (qPCR read-out)
T17 sequence (Q9BVS4 whole entry): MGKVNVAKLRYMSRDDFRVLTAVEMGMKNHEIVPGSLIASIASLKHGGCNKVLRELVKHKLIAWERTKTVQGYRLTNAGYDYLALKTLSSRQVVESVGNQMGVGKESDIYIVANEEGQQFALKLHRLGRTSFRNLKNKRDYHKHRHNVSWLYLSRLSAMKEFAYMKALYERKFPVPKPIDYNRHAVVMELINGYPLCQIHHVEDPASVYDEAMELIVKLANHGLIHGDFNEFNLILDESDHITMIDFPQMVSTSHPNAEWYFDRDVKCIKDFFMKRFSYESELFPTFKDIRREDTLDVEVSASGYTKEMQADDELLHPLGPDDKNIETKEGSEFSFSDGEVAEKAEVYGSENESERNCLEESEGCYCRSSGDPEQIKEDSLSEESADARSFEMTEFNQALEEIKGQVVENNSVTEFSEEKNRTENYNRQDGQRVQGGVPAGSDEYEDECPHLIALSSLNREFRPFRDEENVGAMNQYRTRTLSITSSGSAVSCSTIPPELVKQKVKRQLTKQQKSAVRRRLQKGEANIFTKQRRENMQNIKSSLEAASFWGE
Outline: as §1

TYRO3 = biological target: T18, TYRO3 (Homo sapiens, UniProt Q06418)
T18 construct: purchased Ambit Kinomescan (contract screening service)
T18 sequence (Q06418 41-890): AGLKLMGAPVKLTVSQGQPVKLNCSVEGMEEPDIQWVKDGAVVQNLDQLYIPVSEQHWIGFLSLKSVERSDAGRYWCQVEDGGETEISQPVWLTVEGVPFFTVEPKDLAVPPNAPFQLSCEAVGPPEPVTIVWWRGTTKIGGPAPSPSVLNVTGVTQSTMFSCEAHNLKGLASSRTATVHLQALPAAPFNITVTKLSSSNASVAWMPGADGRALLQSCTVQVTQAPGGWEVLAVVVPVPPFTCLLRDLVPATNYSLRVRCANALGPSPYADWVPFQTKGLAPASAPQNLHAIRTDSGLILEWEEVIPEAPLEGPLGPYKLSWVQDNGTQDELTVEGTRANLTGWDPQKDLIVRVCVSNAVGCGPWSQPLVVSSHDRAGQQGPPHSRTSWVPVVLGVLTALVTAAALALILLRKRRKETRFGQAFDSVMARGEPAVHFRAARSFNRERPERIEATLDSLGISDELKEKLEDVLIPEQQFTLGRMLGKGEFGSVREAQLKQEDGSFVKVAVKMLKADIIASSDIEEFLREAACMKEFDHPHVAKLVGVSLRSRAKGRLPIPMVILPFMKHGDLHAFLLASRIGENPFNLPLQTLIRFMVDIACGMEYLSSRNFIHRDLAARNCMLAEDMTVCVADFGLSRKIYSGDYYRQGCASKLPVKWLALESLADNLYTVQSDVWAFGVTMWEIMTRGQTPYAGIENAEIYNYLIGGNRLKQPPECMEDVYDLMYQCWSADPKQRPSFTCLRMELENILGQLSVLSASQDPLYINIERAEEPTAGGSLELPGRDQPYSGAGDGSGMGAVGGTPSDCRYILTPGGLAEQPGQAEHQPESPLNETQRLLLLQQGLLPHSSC
Outline: as §1

FLT1 = biological target: T19, FLT1 (Homo sapiens, UniProt P17948)
T19 construct: purchased Ambit Kinomescan (contract panel, KINOMEscan Max)
Outline: as §1

IKK-alpha = biological target: T20, IKK-alpha (Homo sapiens, UniProt O15111)
T20 construct: DNA tag (qPCR read-out); purchased Ambit Kinomescan
Outline: as §1

ASK1 = biological target: T21, ASK1 (Homo sapiens, UniProt Q99683)
T21 construct: DNA tag (qPCR label); purchased Ambit Kinomescan (contract screening)
Outline: as §1

FRK = biological target: T22, FRK (Homo sapiens, UniProt P42685)
T22 construct: purchased Ambit Kinomescan (contract panel, KINOMEscan Max)
Outline: as §1

PIK3CA(M1043I) = biological target: T23, PIK3CA(M1043I) (Homo sapiens, UniProt P42336, M1043I)
T23 construct: DNA tag (qPCR read-out)
T23 sequence (P42336 whole entry M1043I): as the sequence (P42336 whole entry Q546K) above, with K546Q, M1043I counted along it
Outline: as §1

EPHA2 = EPHA2 (Homo sapiens, UniProt P29317)
Outline: as §1

BRSK1 = biological target: T24, BRSK1 (Homo sapiens, UniProt Q8TDC3)
T24 construct: DNA tag (qPCR label); purchased Ambit Kinomescan (contract screening)
Outline: as §1

[2] = biological target: T25, TYK2(JH2domain-pseudokinase) (Homo sapiens, UniProt P29597); details: 1 μM
T25 construct: TYK2(JH2domain-pseudokinase); purchased Ambit Kinomescan (contract screening service)
T25 sequence (P29597 589-875 limits assumed): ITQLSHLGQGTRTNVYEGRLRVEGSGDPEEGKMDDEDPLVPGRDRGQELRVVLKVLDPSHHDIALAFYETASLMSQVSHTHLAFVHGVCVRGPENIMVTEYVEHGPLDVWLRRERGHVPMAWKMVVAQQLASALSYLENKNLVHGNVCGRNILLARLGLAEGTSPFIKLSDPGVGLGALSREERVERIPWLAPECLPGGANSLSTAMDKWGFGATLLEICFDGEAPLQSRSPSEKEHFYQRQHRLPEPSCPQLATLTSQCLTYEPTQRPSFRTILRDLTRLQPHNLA
Outline: as §1

PKAC-beta = biological target: T26, PKAC-beta (Homo sapiens, UniProt P22694)
T26 construct: purchased Ambit (KINOMEscan Max service)
Outline: as §1

ROS1 = biological target: T27, ROS1 (Homo sapiens, UniProt P08922)
T27 construct: DNA tag (qPCR read-out)
Outline: as §1

AMPK-alpha2 = biological target: T28, AMPK-alpha2 (Homo sapiens, UniProt P54646)
T28 construct: DNA tag (qPCR label); purchased Ambit Kinomescan (contract screening)
Outline: as §1

CSNK2A2 = biological target: T29, CSNK2A2 (Homo sapiens, UniProt P19784)
T29 construct: DNA tag (qPCR read-out)
T29 sequence (P19784 whole entry): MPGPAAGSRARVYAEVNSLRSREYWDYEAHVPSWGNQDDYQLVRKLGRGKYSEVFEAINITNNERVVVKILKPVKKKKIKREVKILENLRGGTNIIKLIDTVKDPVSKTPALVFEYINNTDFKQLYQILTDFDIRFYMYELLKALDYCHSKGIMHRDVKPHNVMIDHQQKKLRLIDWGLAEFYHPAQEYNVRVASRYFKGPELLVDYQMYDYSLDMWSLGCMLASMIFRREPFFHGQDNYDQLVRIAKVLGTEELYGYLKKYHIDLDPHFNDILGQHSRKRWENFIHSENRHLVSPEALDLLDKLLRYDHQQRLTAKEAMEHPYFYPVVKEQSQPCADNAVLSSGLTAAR
Outline: as §1

`NCCCNc1nc2c(Br)c(Br)c(Br)c(Br)c2[nH]1` [Compound 11, N-(3-aminopropyl)-4,5,6,7-tetrabromo-1H-benzo[d]imidazol-2-amine] gave a remaining binding at 1 µM (PCTK3) of 92%, a remaining binding at 1 µM (BIKE) of 60% and a remaining binding at 1 µM (TNK2) of 100%. The remaining binding at 1 µM (CAMKK2) was 100%, the remaining binding at 1 µM (ZAP70) was 100% and the remaining binding at 1 µM (FGFR1) was 100%. For the same compound, the remaining binding at 1 µM (RET(V804M)) was 100%, the remaining binding at 1 µM (RIOK1) was 56% and the remaining binding at 1 µM (ACVR1) was 100%. It also gave a remaining binding at 1 µM (VEGFR2) of 96%, a remaining binding at 1 µM (EPHB3) of 91% and a remaining binding at 1 µM (HCK) of 98%. The remaining binding at 1 µM (PIK3CA(Q546K)) was 100%, the remaining binding at 1 µM (ACVRL1) was 100% and the remaining binding at 1 µM (PIK3CA(E542K)) was 98%. The remaining binding at 1 µM (FLT3(N841I)) was 81%, the “% binding” value (MLK3) was 95% and the remaining binding at 1 µM (PAK7) was 90%. For the same compound, the remaining binding at 1 µM (CLK3) was 70%, the remaining binding at 1 µM [1] was 100% and the remaining binding at 1 µM (RIOK2) was 100%. The remaining binding at 1 µM (TYRO3) was 100%, the remaining binding at 1 µM (FLT1) was 100% and the remaining binding at 1 µM (IKK-alpha) was 24%. For the same compound, the remaining binding at 1 µM (ASK1) was 100%, the remaining binding at 1 µM (FRK) was 100% and the remaining binding at 1 µM (PIK3CA(M1043I)) was 100%. For the same compound, the remaining binding at 1 µM (EPHA2) was 92%, the remaining binding at 1 µM (BRSK1) was 100% and the “% binding” value [2] was 100%. It also gave a remaining binding at 1 µM (PKAC-beta) of 84%, a remaining binding at 1 µM (ROS1) of 100% and a remaining binding at 1 µM (AMPK-alpha2) of 100%. It also gave a remaining binding at 1 µM (CSNK2A2) of 90%.
